What all share (format): functional, cell-based
Data set [1] addresses Multidrug resistance protein 1a (Rattus norvegicus) (UniProt Q6PSM0). In words: TP_TRANSPORTER: increase in Doxorubicin intracellular accumulation (Doxorubicin: 17.2 uM, Azelastine: 30 uM) in C6 0.5 cells.
For data set [2], the target named is T1, ATP-dependent translocase ABCB1 (Rattus norvegicus, UniProt P43245). In words: TP_TRANSPORTER: increase in Doxorubicin intracellular accumulation (Doxorubicin: 17.2 uM, Azelastine: 10 uM) in C6 1V cells.
T1 sequence (P43245 whole entry): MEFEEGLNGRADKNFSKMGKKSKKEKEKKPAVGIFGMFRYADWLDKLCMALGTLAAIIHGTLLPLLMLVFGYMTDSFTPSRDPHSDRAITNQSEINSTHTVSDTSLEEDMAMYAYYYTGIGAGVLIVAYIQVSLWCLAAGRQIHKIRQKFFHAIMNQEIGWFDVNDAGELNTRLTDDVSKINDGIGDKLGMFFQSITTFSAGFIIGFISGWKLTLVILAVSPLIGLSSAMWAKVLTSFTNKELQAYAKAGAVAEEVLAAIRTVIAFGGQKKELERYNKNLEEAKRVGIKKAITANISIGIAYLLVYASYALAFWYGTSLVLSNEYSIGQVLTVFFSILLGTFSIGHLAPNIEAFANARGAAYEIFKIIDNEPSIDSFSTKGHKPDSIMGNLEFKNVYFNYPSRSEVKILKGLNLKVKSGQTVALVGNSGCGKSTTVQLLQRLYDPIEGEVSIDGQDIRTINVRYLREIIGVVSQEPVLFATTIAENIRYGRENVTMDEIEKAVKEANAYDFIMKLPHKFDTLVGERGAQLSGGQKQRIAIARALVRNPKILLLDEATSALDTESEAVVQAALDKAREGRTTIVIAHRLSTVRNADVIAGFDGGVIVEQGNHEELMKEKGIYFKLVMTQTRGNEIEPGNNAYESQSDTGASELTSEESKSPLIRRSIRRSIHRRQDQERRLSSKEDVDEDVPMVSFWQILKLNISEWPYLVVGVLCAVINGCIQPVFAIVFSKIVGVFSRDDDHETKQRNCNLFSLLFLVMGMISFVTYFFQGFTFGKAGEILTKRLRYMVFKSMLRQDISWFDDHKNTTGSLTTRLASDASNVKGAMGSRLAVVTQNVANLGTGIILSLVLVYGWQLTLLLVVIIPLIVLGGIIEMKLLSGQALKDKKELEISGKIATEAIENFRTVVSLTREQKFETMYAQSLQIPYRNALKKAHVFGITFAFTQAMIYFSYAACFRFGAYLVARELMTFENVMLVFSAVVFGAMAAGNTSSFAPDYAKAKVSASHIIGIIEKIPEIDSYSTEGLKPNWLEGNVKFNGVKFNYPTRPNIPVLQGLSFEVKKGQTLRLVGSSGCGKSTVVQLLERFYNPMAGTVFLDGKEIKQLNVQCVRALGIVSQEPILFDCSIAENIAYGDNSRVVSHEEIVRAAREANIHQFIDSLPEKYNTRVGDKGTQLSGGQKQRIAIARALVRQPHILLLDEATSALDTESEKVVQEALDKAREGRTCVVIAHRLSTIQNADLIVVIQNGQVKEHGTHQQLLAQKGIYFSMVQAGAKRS
Data set [3] has as its target T1, ATP-dependent translocase ABCB1. In words: TP_TRANSPORTER: increase in Doxorubicin intracellular accumulation (Doxorubicin: 17.2 uM, Flezelastine: 3 uM) in C6 1V cells.
The target of data set [4] is Multidrug resistance protein 1a (Rattus norvegicus) (UniProt Q6PSM0). The data set can be described thus: TP_TRANSPORTER: increase in Doxorubicin intracellular accumulation (Doxorubicin: 17.2 uM, Flezelastine: 10 uM) in C6 0.5 cells.
Multidrug resistance protein 1a (Rattus norvegicus), sequence (Q6PSM0 as listed by the source): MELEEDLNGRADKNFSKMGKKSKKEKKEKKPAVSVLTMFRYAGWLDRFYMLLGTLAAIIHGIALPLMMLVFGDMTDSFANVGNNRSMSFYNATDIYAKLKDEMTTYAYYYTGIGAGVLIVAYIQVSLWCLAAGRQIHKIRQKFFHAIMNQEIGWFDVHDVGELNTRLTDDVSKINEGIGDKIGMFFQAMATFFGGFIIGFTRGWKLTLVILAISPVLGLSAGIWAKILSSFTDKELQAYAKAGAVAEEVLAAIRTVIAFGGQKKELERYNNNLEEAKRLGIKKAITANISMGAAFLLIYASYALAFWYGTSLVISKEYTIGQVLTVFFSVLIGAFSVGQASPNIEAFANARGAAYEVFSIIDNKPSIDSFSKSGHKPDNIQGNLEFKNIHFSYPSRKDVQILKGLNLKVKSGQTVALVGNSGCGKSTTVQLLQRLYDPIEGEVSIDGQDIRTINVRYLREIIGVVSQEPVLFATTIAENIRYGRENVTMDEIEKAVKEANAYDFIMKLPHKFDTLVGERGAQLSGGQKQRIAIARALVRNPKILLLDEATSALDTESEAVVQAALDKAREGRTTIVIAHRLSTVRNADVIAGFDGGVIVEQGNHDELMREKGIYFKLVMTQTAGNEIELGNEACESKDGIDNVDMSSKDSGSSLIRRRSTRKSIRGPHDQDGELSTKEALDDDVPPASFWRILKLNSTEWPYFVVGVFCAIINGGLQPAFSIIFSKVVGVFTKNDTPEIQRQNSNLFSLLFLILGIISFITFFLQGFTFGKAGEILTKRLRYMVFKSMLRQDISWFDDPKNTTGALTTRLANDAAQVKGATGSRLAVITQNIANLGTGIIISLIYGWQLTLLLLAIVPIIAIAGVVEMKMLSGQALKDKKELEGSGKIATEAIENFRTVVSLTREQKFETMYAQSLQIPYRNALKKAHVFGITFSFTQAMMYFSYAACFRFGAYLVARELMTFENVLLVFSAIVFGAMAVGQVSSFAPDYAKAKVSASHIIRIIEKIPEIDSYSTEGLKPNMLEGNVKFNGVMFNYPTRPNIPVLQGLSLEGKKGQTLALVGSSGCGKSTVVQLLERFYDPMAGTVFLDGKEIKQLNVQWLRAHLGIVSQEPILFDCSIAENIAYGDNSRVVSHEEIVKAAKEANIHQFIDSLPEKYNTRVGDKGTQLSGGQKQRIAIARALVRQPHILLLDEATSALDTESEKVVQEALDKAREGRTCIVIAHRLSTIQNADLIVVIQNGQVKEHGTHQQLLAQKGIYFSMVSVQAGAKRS

`CN1CCCC(n2nc(Cc3ccc(Cl)cc3)c3ccccc3c2=O)CC1` (centres undefined) [AZELASTINE]: the Activity result in data set [1] and in data set [2] was “inhibitor [+]” each time.

As to `O=c1c2ccccc2c(Cc2ccc(F)cc2)nn1C1CCCN(CCc2ccccc2)CC1` (centres undefined) [FLEZELASTINE], the Activity entry in data set [3] and in data set [4] was “inhibitor [+]” in each case.

The values are drawn from ChEMBL document CHEMBL2073885, “Azelastine and flezelastine as reversing agents of multidrug resistance: pharmacological and molecular studies” (Biochem Pharmacol, 1995).
